These results are taken from patent publication US20240391948A1, “NOVEL COMPOUND THAT INHIBITS TNF-ALPHA GENERATION AND INFLAMMASOME ACTIVITY AND PREPARATION METHOD THEREFOR” (SHAPERON INC., priority 2021, published 2024).

Assay type in all cases: cell-based
For assay [1], the system named is J774A.1 (Mouse BALB/c monocyte macrophage cell line) cells. In words: LPS-induced TNF-α secretion inhibition in J774A.1 cells. Particulars: J774.A1, 1 μM compound, graded compared to taurodeoxycholic acid (positive control), read-out: TNF-α production inhibition grade. Summed up:
(§1)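 Mouse J774A.1 macrophages treated with 1 μM compound; TNF-α secretion measured after LPS stimulation and IL-1β secretion after LPS+ATP stimulation. Suppression graded against taurodeoxycholic acid: A over 100%, B 50–100%, C 20–50%, D under 20%.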

The test system of assay [2] is U937 cells (human monocytic cell line). In words: Pam2CSK4-induced TNF-α secretion inhibition in PMA-differentiated U937 cells. The conditions noted are these: U-937, U937 cells differentiated with PMA, read-out: TNF-α production inhibition grade (IC50). Put shortly: (§2)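 U937 cells were PMA-differentiated into macrophages and treated with compound before inflammatory stimulus. TNF-α secretion was induced with Pam2CSK4 and IL-1β secretion with BzATP. IC50 (μM) values are graded A-D, with separate cut-offs per cytokine.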

Assay [3] shares this test system. Kind of assay: BzATP-induced IL-1β secretion inhibition in PMA-differentiated U937 cells. The conditions noted are these: U-937, U937 cells differentiated with PMA, read-out: IL-1β production inhibition grade (IC50). Put shortly: as §2
The test system of assay [4] is J774A.1 (Mouse BALB/c monocyte macrophage cell line) cells. Kind of assay: LPS+ATP-induced IL-1β secretion inhibition in J774A.1 cells. Particulars: J774.A1, 1 μM compound, graded compared to taurodeoxycholic acid (positive control), read-out: IL-1β production inhibition grade. Put shortly:
as §1

With `C[C@H](CCC(=O)N[C@@H]1CCCC[C@@H]1S(=O)(=O)O)[C@H]1CC[C@H]2[C@@H]3[C@H](O)C[C@@H]4C[C@H](O)CC[C@]4(C)[C@H]3C[C@H](O)[C@]12C` [NC20026], the inhibition at 1 µM in assay [1] is below 20%; in assay [4], 50 to 100%. In addition, the IC50 in assay [2] lay in the range of 1 to 2 µM; in assay [3], 0.1 to 0.2 µM.

In the case of `CC[C@H]1[C@@H](O)[C@@H]2[C@H](C[C@H](O)[C@]3(C)[C@@H]([C@H](C)CCC(=O)N[C@H](CC(C)C)CS(=O)(=O)O)CC[C@@H]23)[C@@]2(C)CC[C@@H](O)C[C@@H]12` [NC50031], the inhibition at 1 µM in assay [1] is below 20%; in assay [4], 50 to 100%. Besides, the IC50 is at least 2 µM in assay [2] and 0.05 to 0.1 µM in assay [3].

Turning to `CC[C@H]1[C@@H](O)[C@@H]2[C@H](CC[C@]3(C)[C@@H]([C@H](C)CCC(=O)N4CCC[C@@H](S(=O)(=O)O)C4)CC[C@@H]23)[C@@]2(C)CC[C@@H](O)C[C@@H]12` [NC40010], the inhibition at 1 µM in assay [1] is 50 to 100%; in assay [4], below 20%. Besides, the IC50 in assay [2] was 0.5 to 1 µM; in assay [3], at least 0.2 µM.

Turning to `CC[C@H]1[C@@H](O)[C@@H]2[C@H](CC[C@]3(C)[C@@H]([C@H](C)CCC(=O)N4CC[C@@H](S(=O)(=O)O)C4)CC[C@@H]23)[C@@]2(C)CC[C@@H](O)C[C@@H]12` [NC40034], the inhibition at 1 µM was 20 to 50% in assay [1] and above 100% in assay [4]. Moreover, the concentration for half-maximal inhibition (IC50) in assay [2] is below 0.5 µM; in assay [3], below 0.05 µM.

For `C[C@H](CCC(=O)N1CCN(C)CC1)[C@H]1CC[C@H]2[C@@H]3CC[C@@H]4C[C@H](O)CC[C@]4(C)[C@H]3C[C@H](O)[C@]12C` [NC10019], the inhibition at 1 µM in assay [1] was below 20%; in assay [4] it was 20 to 50%. For the same compound, the IC50 in assay [2] is 0.5 to 1 µM; in assay [3], at least 0.2 µM.

For `CC[C@H]1[C@@H](O)[C@@H]2[C@H](CC[C@]3(C)[C@@H]([C@H](C)CCC(=O)N(CCO)CCS(=O)(=O)O)CC[C@@H]23)[C@@]2(C)CC[C@@H](O)C[C@@H]12` [NC40006], the values for the inhibition at 1 µM in assay [1] and in assay [4] were 20 to 50% and 50 to 100%, respectively. For the same compound, the IC50 in assay [2] was 1 to 2 µM; in assay [3], at least 0.2 µM.

Take `C[C@H](CCC(=O)NCCC(=O)O)[C@H]1CC[C@H]2[C@@H]3CC[C@@H]4C[C@H](O)CC[C@]4(C)[C@H]3CC[C@]12C` [NC10053]: the inhibition at 1 µM in assay [1] and in assay [4] was 50 to 100% throughout. Moreover, the results for the IC50 in assay [2] and in assay [3] were 1 to 2 µM and 0.05 to 0.1 µM, respectively.

As for `C[C@H](CS(=O)(=O)O)NC(=O)CC[C@@H](C)[C@H]1CC[C@H]2[C@@H]3[C@H](O)C[C@@H]4C[C@H](O)CC[C@]4(C)[C@H]3C[C@H](O)[C@]12C` [NC20029], the inhibition at 1 µM in assay [1] and in assay [4] was below 20% throughout. For the same compound, the half-inhibitory concentration (IC50) in assay [2] was below 0.5 µM; in assay [3], 0.05 to 0.1 µM.

Take `C[C@H](CCC(=O)N[C@@H](Cc1ccccc1)CS(=O)(=O)O)[C@H]1CC[C@H]2[C@@H]3CC[C@@H]4CC(=O)CC[C@]4(C)[C@H]3CC[C@]12C` [NC30014]: the inhibition at 1 µM in assay [1] is below 20%; in assay [4], 20 to 50%. In addition, the half-maximal inhibitory concentration (IC50) was 0.5 to 1 µM in assay [2] and at least 0.2 µM in assay [3].

For the compound `CC[C@H]1[C@@H](O)[C@@H]2[C@H](CC[C@]3(C)[C@@H]([C@H](C)CCC(=O)N(CCS(=O)(=O)O)c4ccccc4)CC[C@@H]23)[C@@]2(C)CC[C@@H](O)C[C@@H]12` [NC40037], the inhibition at 1 µM in assay [1] is below 20%; in assay [4], 20 to 50%. Besides, the IC50 in assay [2] fell in the range of 0.5 to 1 µM; in assay [3], 0.05 to 0.1 µM.

`C[C@H](CCC(=O)N[C@@H](C)CS(=O)(=O)O)[C@H]1CC[C@H]2[C@@H]3CC[C@@H]4CC(=O)CC[C@]4(C)[C@H]3CC[C@]12C` [NC30028]: the inhibition at 1 µM in assay [1] and in assay [4] was below 20% throughout. Moreover, the IC50 was 0.5 to 1 µM in assay [2] and at least 0.2 µM in assay [3].

Consider `C[C@H](CCC(=O)N[C@H](CS(=O)(=O)O)c1ccccc1)[C@H]1CC[C@H]2[C@@H]3CC[C@@H]4C[C@H](O)CC[C@]4(C)[C@H]3CC[C@]12C` [NC10069], for which the inhibition at 1 µM in assay [1] was below 20%; in assay [4], above 100%. The IC50 is below 0.5 µM in assay [2] and below 0.05 µM in assay [3].

As for `CC(C)[C@@H](CS(=O)(=O)O)NC(=O)CC[C@@H](C)[C@H]1CC[C@H]2[C@@H]3CC[C@@H]4CC(=O)CC[C@]4(C)[C@H]3CC[C@]12C` [NC30016], the inhibition at 1 µM in assay [1] and in assay [4] was 20 to 50% throughout. Moreover, the results for the 50% inhibitory concentration (IC50) in assay [2] and in assay [3] were below 0.5 µM and at least 0.2 µM, respectively.

As to `C[C@H](CCC(=O)N[C@H]1CCCC[C@H]1S(=O)(=O)O)[C@H]1CC[C@H]2[C@@H]3CC[C@@H]4C[C@H](O)CC[C@]4(C)[C@H]3C[C@H](O)[C@]12C` [NC10042], the inhibition at 1 µM in assay [1] and in assay [4] was below 20% in each case. For the same compound, the IC50 is 0.5 to 1 µM in assay [2] and at least 0.2 µM in assay [3].

As for `CC(C)[C@H](CS(=O)(=O)O)NC(=O)CC[C@@H](C)[C@H]1CC[C@H]2[C@@H]3[C@H](O)C[C@@H]4C[C@H](O)CC[C@]4(C)[C@H]3C[C@H](O)[C@]12C` [NC20017], the inhibition at 1 µM in assay [1] was below 20%; in assay [4], 50 to 100%. The IC50 in assay [2] is below 0.5 µM; in assay [3] it was at least 0.2 µM.

Regarding `C[C@H](CCC(=O)NCS(=O)(=O)O)[C@H]1CC[C@H]2[C@@H]3CC[C@@H]4C[C@H](O)CC[C@]4(C)[C@H]3C[C@H](O)[C@]12C` [NC10001], the inhibition at 1 µM in assay [1] was below 20%; in assay [4] it was above 100%. The results for the IC50 in assay [2] and in assay [3] were at least 2 µM and below 0.05 µM, respectively.

With `CC[C@H]1[C@@H](O)[C@@H]2[C@H](CC[C@]3(C)[C@@H]([C@H](C)CCC(=O)NC4(CS(=O)(=O)O)CC4)CC[C@@H]23)[C@@]2(C)CC[C@@H](O)C[C@@H]12` [NC40032], the inhibition at 1 µM in assay [1] and in assay [4] was below 20% throughout. The results for the IC50 in assay [2] and in assay [3] were 1 to 2 µM and at least 0.2 µM, respectively.

For the compound `C[C@H](CCC(=O)N(CCS(=O)(=O)O)C1CCOCC1)[C@H]1CC[C@H]2[C@@H]3CC[C@@H]4C[C@H](O)CC[C@]4(C)[C@H]3CC[C@]12C` [NC10059], the inhibition at 1 µM in assay [1] is below 20%; in assay [4] it was above 100%. Moreover, the IC50 in assay [2] was 1 to 2 µM; in assay [3], below 0.05 µM.

Consider `C[C@H](CCC(=O)N1CC[C@@H](S(=O)(=O)O)C1)[C@H]1CC[C@H]2[C@@H]3CC[C@@H]4CC(=O)CC[C@]4(C)[C@H]3CC[C@]12C` [NC30034], for which the inhibition at 1 µM in assay [1] and in assay [4] was below 20% in each case. For the same compound, the IC50 is 0.5 to 1 µM in assay [2] and at least 0.2 µM in assay [3].

Regarding `C[C@H](CCC(=O)N1CCC[C@@H](S(=O)(=O)O)C1)[C@H]1CC[C@H]2[C@@H]3CC[C@@H]4C[C@H](O)CC[C@]4(C)[C@H]3CC[C@]12C` [NC10061], the inhibition at 1 µM in assay [1] was below 20%; in assay [4] it was above 100%. For the same compound, the IC50 in assay [2] lay in the range of 0.5 to 1 µM; in assay [3], 0.1 to 0.2 µM.

In the case of `C[C@H](CCC(=O)N(CCS(=O)(=O)O)Cc1cccnc1)[C@H]1CC[C@H]2[C@@H]3CC[C@@H]4C[C@H](O)CC[C@]4(C)[C@H]3C[C@H](O)[C@]12C` [NC10051], the figures for the inhibition at 1 µM in assay [1] and in assay [4] were below 20% and 50 to 100%, respectively. In addition, the IC50 in assay [2] lay in the range of 1 to 2 µM; in assay [3], 0.05 to 0.1 µM.

For `C[C@H](CCC(=O)N(C)CCS(=O)(=O)O)[C@H]1CC[C@H]2[C@@H]3CC[C@@H]4CC(=O)CC[C@]4(C)[C@H]3CC[C@]12C` [NC30004], the inhibition at 1 µM in assay [1] and in assay [4] was 20 to 50% throughout. The results for the IC50 in assay [2] and in assay [3] were 1 to 2 µM and at least 0.2 µM, respectively.

With `C[C@H](CS(=O)(=O)O)NC(=O)CC[C@@H](C)[C@H]1CC[C@H]2[C@@H]3CC[C@@H]4C[C@H](O)CC[C@]4(C)[C@H]3CC[C@]12C` [NC10085], the inhibition at 1 µM in assay [1] and in assay [4] was below 20% in each case. For the same compound, the figures for the IC50 in assay [2] and in assay [3] were at least 2 µM and at least 0.2 µM, respectively.

Take `C[C@H](CCC(=O)N(C)CCS(=O)(=O)O)[C@H]1CC[C@H]2[C@@H]3[C@H](O)C[C@@H]4C[C@H](O)CC[C@]4(C)[C@H]3C[C@H](O)[C@]12C` [NC20004]: the values for the inhibition at 1 µM in assay [1] and in assay [4] were below 20% and above 100%, respectively. Moreover, the results for the IC50 in assay [2] and in assay [3] were 0.5 to 1 µM and below 0.05 µM, respectively.

For `C[C@H](CCC(=O)NC[C@@H](C)S(=O)(=O)O)[C@H]1CC[C@H]2[C@@H]3CC[C@@H]4C[C@H](O)CC[C@]4(C)[C@H]3C[C@H](O)[C@]12C` [NC10039], the inhibition at 1 µM in assay [1] is 20 to 50%; in assay [4] it was 50 to 100%. Also, the IC50 is 0.5 to 1 µM in assay [2] and 0.05 to 0.1 µM in assay [3].
